Test results reported in patent US4719046A, “Crysene derivatives” (Burroughs Wellcome Co., priority 1984, dated 1988).
Structures can show the parent of a compound that is named as a salt.

Tests used:
[1] = test system: melanotic melanoma B16; test: Melanotic Melanoma B16 test; type: in vivo, mouse (B6C3-F1); conditions: median survival T/C; IP days 1, 5, 9; active if >125%; dose mg/kg: 1C 100, 6G 50, 3 70, 2 75, 18B 70
Description: Methods for evaluating the antitumor activity of these compounds are essentially those used in the Tumor Panel by the Developmental Therapeutics Program, Division of Cancer Treatment, National Cancer Institute, A. Goldin, et al., Methods in Cancer Research, Vol. XVI, p. 165, Academic Press (1979). Some modifications, in dose level and schedule have been made to increase the testing efficiency.
(§1) CD2-F1 mice, of the same sex, weighing 20±3 g, are used for this test. Control and test animals are injected intraperitoneally with a suspension of ~10^6 viable P388/0 tumor cells on day 0. In each test, several dose levels which bracket the LD20 of the compound are evaluated; each dose level group contains six animals. The test compounds are prepared either in physiologic saline containing 0.05% Tween 80 or distilled water containing 5% dextrose and are administered intraperitoneally on days 1, 5, and 9 relative to tumor implant. Doses are on a mg/kg basis according to individual animals' body weights. The day of death for each animal is recorded, the median identified for each group and the ratios of median survival time for treated (T)/control (C) groups are calculated. The criterion for activity is T/C×100≥120%.
B6C3-F1 mice of the same sex, weighing 20±3 g, are used for this test. A suspension of B16 cells is prepared from a non-necrotic portion of solid tumor tissue obtained from a passage mouse. One gram of tumor is homogenized in 9 mL ice-cold Earle's salts solution and filtered through 1000 mesh screen to remove debris. 0.5 mL of the resulting brei is injected intraperitoneally into each animal. Dosing is carried out as in the P388/0 and L1210 tests. Days of death are recorded for a 60 day period and T/C ratio calculated as in the P388/0 and L1210 tests. The criterion for activity is T/C×100>125%.

[2] = test system: CD2-F1 mice; test: LD20 in the P388/0 test mice; type: in vivo, mouse (CD2-F1); conditions: IP days 1, 5, 9, doses on a mg/kg basis
Experimental: as §1
^A Values in parentheses are the highest nontoxic dose where the
LD20 was not determined.

[3] = test system: Mycoplasma smegmatis; test: Antibacterial test, Mycoplasma smegmatis (agar dilution); type: cell-based
Description: (§2) Anitbacterial testing against […] (S3264) and Streptococcus pyogenes (CN10) was done with slight modifications using standard agar dilution assays as outlined in Manual of Clinical Microbiology Second Ed., E. H. Lennette. E. H. Spaulding and J. P. Traunt Eds., American Society for Microbiology, Washington, DC, 1974

[4] = test system: Candida albicans (CN 1863); test: Candida albicans antifungal test; type: cell-based; conditions: Wellcotest sensitivity test agar plus 7% lysed horse blood, CN1863
Description: Antifungal testing against Candida albicans (CN 1863) was done with slight modifications using a combination of broth and agar dilution assays as outlined in Laboratory Handbook of Medical Mycology, Chapter 6, pages 441-446, M. R. McGinnis, Academic Press, New York, NY, 1980
Medium: Wellcotest ® sensitivity test agar plus 7% lysed horse blood.

[5] = test system: Streptococcus pyogenes (CN10); test: Antibacterial test, Streptococcus pyogenes (agar dilution); type: cell-based; conditions: agar dilution, CN10, read-out: MIC
Description: as §2

Question: What does the source list for C[C@H](O)[C@@](C)(CO)NCc1cc2c3ccccc3ccc2c2ccccc12 (relative stereo) [Example 6G, (+-)(2R*,3S*)-2-(6-Chrysenylmethylamino)-2-methyl-1,3-butanediol hydrochloride.1/3H2 O]?
Answer: T/C × 100% Excluding 60 day Survivors [1]: +160%; LD20 [2]: 53 mg/kg; MIC [3]: ≤ 3 µg/mL; MIC [4]: 100 µg/mL; MIC [5]: 10 µg/mL
